According to article PMC7822874, “Chemoprotective antimalarials identified through quantitative high-throughput screening of Plasmodium blood and liver stage parasites” (Scientific Reports, 2021):
“And” between values parts separate entries of the source, which are not always exact repeats. Equal entries are not always repeated. Where two headings read alike, the source gives them in different places.

Tests used:
[1] = tested on: T1, Plasmodium falciparum Dd2-attB (parental line), asexual blood stages; assay: microbe, parasite or virus in culture; parameters: replicate k of 3 (each line is one of three independent assays; the three lines of one compound and parasite line follow each other); conditions: n = 1; for Individual replicates / Log AC50 (M): 72 h; for AC50: Plasmodium falciparum, DD2, 72 h
T1 construct: Dd2-attB, the isogenic parental line
Description: (§1) The overexpression of the fumarate-dependent yeast DHODH confers resistance to compounds that inhibit the parasite mETC, or the parasite DHODH enzyme that depends on ubiquinone provided by the parasite mETC. Assays were performed in three independent assays on a subset of compounds, and differences between the Dd2-attB parental line and the ScDHODH transgenic line were analyzed using two-sided Student’s t-tests.

[2] = tested on: T2, Plasmodium falciparum Dd2-attB-ScDHODH (transgenic line expressing yeast DHODH), asexual blood stages; assay: organism not typed; parameters: replicate k of 3 (each line is one of three independent assays; the three lines of one compound and parasite line follow each other)
T2 construct: Dd2-attB-ScDHODH, the transgenic line that expresses yeast DHODH
Description: as §1

[3] = read-out: Individual replicates / Log AC50 (converted)

Row | SMILES | Individual replicates / Log AC50 (M) [1] | AC50 [1, 3] | other results
1 | CC(=O)Nc1cccc(-c2csc(Nc3cc(C)ccn3)n2)c1 [MLS000550799-02] | -4.7486 Log AC50 (M) and -5.0986 Log AC50 (M) and -4.9486 Log AC50 (M) | – | Individual replicates / Log AC50 (M) ([2]; 72 h, n = 1): -4.7486 Log AC50 (M)
2 | Cc1ccc(CN2C(=O)C(O)(CC(=O)c3ccc(C)cc3)c3ccccc32)cc1 (stereo not drawn) [NCGC00099997-03] | – | 1.78e-05 M | –
3 | Cc1nnc2c3ccccc3nc(N3CCN(c4ccccc4)CC3)n12 [NCGC00107295-02] | -4.8986 Log AC50 (M) and -4.9986 Log AC50 (M) | – | –
4 | Cc1cccc(N2CCN(C(=O)Cn3ncc4c3-c3ccccc3OC4)CC2)c1C [NCGC00112661-02] | – | 1.42e-05 M | –
5 | O=C(c1ccccc1F)N1c2nc(-c3ccco3)nn2C2(CCCCC2)[C@@H]2CCCC[C@@H]21 [NCGC00118206-02] | -4.7986 Log AC50 (M) | 1.59e-05 M | –
6 | COc1ccc(NC(=O)CN2C(=O)CCn3nc(-c4cccn4C)cc32)cc1Cl [NCGC00132050-02] | -4.9986 Log AC50 (M) | 8.94e-06 M | –
7 | CN1CCN(c2cnc3c(O)ccc(C(=O)O)c3c2)CC1 [NCGC00241033-01] | -4.8986 Log AC50 (M) and -4.9486 Log AC50 (M) | 1.78e-05 M | –
8 | O=C(O)c1ccc(O)c2ncc(N3CCN(Cc4ccccc4)CC3)cc12 [NCGC00241045-03] | – | 1.78e-05 M | –
9 | O=C(O)c1ccc(O)c2ncc(N3CCN(Cc4ccccc4)CC3)cc12 [NCGC00241045-04] | -4.6986 Log AC50 (M) and -4.7986 Log AC50 (M) (2×) | – | –
10 | O=C(O)c1ccc(O)c2ncc(N3CCCCC3CCc3ccccn3)cc12 (stereo not drawn) [NCGC00241756-01] | – | 2e-05 M | –
11 | O=C(NCCCN1CCNCC1)c1cccc(-c2cc(O)c3ncccc3c2)c1 [NCGC00244531-01] | – | 1.59e-05 M | –
12 | O=C(NC1CC1)c1cccc(-c2cc(O)c3ncccc3c2)c1 [NCGC00247738-01] | – | – | AC50 ([1]; read-out: Individual replicates / Log AC50 (M) (converted)): 1.78e-05 M
13 | CN(C)CCCCCCNC(=O)c1cccc(-c2cc(O)c3ncccc3c2)c1 [NCGC00247743-01] | – | 2e-05 M | –
14 | O=C(NCCCN1CC[S+](=O)([O-])CC1)c1cccc(-c2cc(O)c3ncccc3c2)c1 [NCGC00249378-01] | – | – | Individual replicates / Log AC50 (M) ([2]; 72 h; n = 1): -4.6986 Log AC50 (M); AC50 ([2]; 72 h; n = 1; read-out: Individual replicates / Log AC50 (converted)): 20 µM
15 | CCOC(=O)CCNc1cc(N2CCc3ccccc3CC2)nc(-c2ccccn2)n1 [NCGC00344626-02] | -5.0486 Log AC50 (M) and -5.0986 Log AC50 (M) | 6.33e-06 M | –
